Measured values published in patent US6670378B2, “Method of treating Parkinson's disease” (Pharmacia & Upjohn Company, priority 2001, dated 2003).

Columns and labels:
[1] = Plasma/blood levels of the piperidine derivative and its N-dealkylated metabolite after two weeks of chronic dosing (HPLC-MS/MS); format: in vivo, Male Sprague-Dawley rats; settings: plasma one hour after evening dose
Method: In order to perform the brain monoamine neurochemistry analysis, the brains were harvested following 14 days of chronic drug treatment. This was performed by decapitating the rats one hour after the evening drug administration, collecting the trunk blood into EDTA-treated tubes, immediately removing the brains, freezing the brains in small aluminum pans on dry ice and then storing at −80° C. […] Blood was spun and plasma was frozen at −80° C. for analysis of S-(−)-3-[3-(methylsulfonyl) phenyl]-1-propyl-piperidine and its major N-dealkylated metabolite. Plasma concentrations of S-(−)-3-[3-(methylsulfonyl)phenyl]-1-propyl-piperidine and its despropyl metabolite were quantitated using on-line high performance liquid chromatography (HPLC) tandem mass spectroscopy (MS/MS) with an atmospheric pressure chemical ionization (APCI) interface. […] S-(−)-3-[3-(methylsulfonyl)phenyl]-1-propyl-piperidine (0.1 μg/mL, 25 μL) were quantitatively added to 100 μL of plasma sample. […] The linear range of the calibration curve calculated in plasma was 0.02 nmol/mL to 40 nmol/mL for S-(−)-3-[3-(methylsulfonyl) phenyl]-1-propyl-piperidine and 00.01 nmol/mL to 20 nmol/mL for its N-dealkylated metabolite. […] Product ions with m/z 173 were monitored following CID of the protonated stable isotope (m/z 286). […] Study sample concentrations were calculated by reference to this equation.

[2] = system: 6-OH-dopamine lesioned rats; experiment: L-DOPA induced behavioral sensitization (contralateral rotations) in unilaterally 6-OH-dopamine lesioned rats; format: in vivo, Male Sprague-Dawley rats
Method: Repeated administration of dopamine agonists to 6-OH-dopamine lesioned rats results in behavioral sensitization or enhanced rotational behavior in the rats. This effect is believed to mirror the development of motor complications including L-DOPA induced involuntary movements such as dyskinesias in Parkinson's Disease patients.
Male Sprague-Dawley rats having lesion surgery were provided. […] The rats were anesthetized with 60 mg/kg i.p. sodium pentobarbital and then placed in a stereotaxic apparatus. A small hole was drilled through the skull of the rats and a 30-gauge stainless tubing was lowered to the right (one study) or left (two studies) medial forebrain bundle. 8 μg/4 μL (8μ free base) of 6-OH-dopamine solution was injected into the medial forebrain bundle at a rate of 1 μL/min. Following surgery, the incision was closed with clips and ointment containing a local anesthetic/antibiotic was applied to the incision area. The rats were returned to their home cages and allowed one week to recover from surgery.
The rats were group housed in wire mesh hanging cages with free access to food and water and kept on 12-hour light:12-hour dark cycles with the light being on from 6:00 a.m. to 6:00 p.m. All behavioral testing was done between 9:00 a.m. to 6:00 p.m.
Two to three weeks after the surgery, the rats were screened to assess the degree of lesion by measuring their net turning response to a single dose of 0.1 mg/kg s.c. of apomorphine HCl in 0.9% saline. The total turns were recorded in discrete 10 minute intervals. Each rat was connected by a lightweight harness and tether to a rotometer comprising a swivel with a mechanical counter at the top of a clear plastic cylindrical cage. The rats were used for the experiments if they had at least 30 contralateral turns in 10 minutes, with contralateral being away from the side of the lesion. In addition to screening out incomplete lesions, the response to apomorphine was used to separate the rats into balanced treatment groups, prior to the start of chronic dosing. The rats were ranked by cumulative net turning response and an equal number of high and low responders were placed in each treatment group.
All of the injections were given in a volume of 2 ml/kg and, with the exception of L-DOPA+benserazide 15+5 mg/kg, i.p., all injections were subcutaneous. All chronic treatment was given bid, 6-8 hours apart. […] S-(−)-3-[3-(methylsulfonyl)phenyl]-1-propyl-piperidine was dissolved in 0.9% sterile saline and administered at either 10 or 30 mg/kg subcutaneously 20 minutes before L-DOPA or together with the L-DOPA. The basal turning measurement started immediately after the rats received the first injections on day 1 with the activity being measured for 4-6 hours after dosing. The turning activity was measured again on days 7 and 14 and compared to the activity on day 1. […] Analysis of variance was used for statistical calculations and probability levels of <0.05 was regarded as being statistically significant.

[3] = Post mortem brain (prefrontal cortex) levels of L-DOPA after 14 days of chronic treatment; settings: L-DOPA alone vs L-DOPA combined with the piperidine derivative
Method: In order to perform the brain monoamine neurochemistry analysis, the brains were harvested following 14 days of chronic drug treatment. This was performed by decapitating the rats one hour after the evening drug administration, collecting the trunk blood into EDTA-treated tubes, immediately removing the brains, freezing the brains in small aluminum pans on dry ice and then storing at −80° C. Brain levels of L-DOPA and dopamine were analyzed by means of liquid chromatography and electrochemical detection according to standard methodology described in the literature.
After two weeks of the administering of the L-DOPA and benserazide, tissues were taken post-mortem from the unilateral striatum and prefrontal cortex and analyzed for monoamines and their metabolite levels.

[4] = system: rotational behavior induced by apomorphine, L-DOPA and quinpirole; settings: in vivo; cited from earlier work
[5] = system: unilaterally dopamine-lesioned monkeys; settings: cited from earlier work

Structure (SMILES) | effect of chronic treatment with L-DOPA on blood levels [1] | behavioral sensitization induced by L-DOPA (enhanced number of contralateral rotations) ([2]; 10 or 30 mg/kg s.c. bid, 20 minutes before or together with L-DOPA+benserazide 15+5 mg/kg i.p., days 7 and 14 vs day 1) | antagonism of basal rotational response induced by L-DOPA ([2]; 10 or 30 mg/kg s.c. with L-DOPA+benserazide 15+5 mg/kg i.p., both experiments) | rotational behavior or akinesia induced by the compound by itself ([2]; compound alone, s.c.) | time course of antagonism of L-DOPA sensitization (simultaneous vs 20 minutes before L-DOPA) ([2]; given simultaneously with L-DOPA (FIG. 2) vs 20 minutes before (FIG. 1)) | effect of co-treatment on brain levels of L-DOPA [3] | motor impairment such as akinesia or dystonia [4] | rotational behavior induced by apomorphine, L-DOPA and quinpirole [4] | L-DOPA-induced contraversive turning behavior [5] | rotational behavior in animals with unilateral lesions of the nigro-striatal dopamine neurons ([2]; L-DOPA+benserazide 15+5 mg/kg i.p.) | behavioral sensitization, measured as enhanced number of contralateral rotations ([2]; L-DOPA+benserazide 15+5 mg/kg i.p. bid, two separate experiments)
CCCN1CCC[C@@H](c2cccc(S(C)(=O)=O)c2)C1 [S-(−)-3-[3-(methylsulfonyl)phenyl]-1-propyl-piperidine] | did not significantly effect | blocked by both doses | in neither experiment did the piperidine derivative antagonize the basal rotational response | did not induce rotational behavior or akinesia by itself | most optimal antagonism occurred when the piperidine derivative was given simultaneously with L-DOPA | did not appear to effect the brain levels of L-DOPA | without inducing motor impairment | attenuated | attenuating | – | –
CS(=O)(=O)c1cccc([C@@H]2CCCNC2)c1 [N-dealkylated metabolite] | did not significantly effect | – | – | – | – | – | – | – | – | – | –
N[C@@H](Cc1ccc(O)c(O)c1)C(=O)O [L-DOPA, reference compound] | – | – | – | – | – | – | – | – | – | induces rotational behavior | repeatedly exhibited
